Test results taken from patent US20210267944A1 (BioXcel Therapeutics, Inc., priority 2018, published 2021).
Structures can show the parent of a compound that is named as a salt. Where two headings read alike, the source gives them in different places.

Assays:
[1] = SDAT
[2] = Opioid withdrawal Study
Description: Additional Assessment Included: • 1. Hematological and blood chemistry, urinalysis • 2. Physical examination • 3. Standard of care detoxification treatment (ancillary medications) to alleviate symptoms of acute withdrawal to ensure safe discharge from study site. • 4. Adverse event reporting

clinical = conditions: human, in vivo
Protocol: These samples were assayed for the concentration of the drug in those participants randomized to test product.

[3] = schizophrenia study, one subject
Protocol: Adverse events (AEs), including serious adverse events (SAEs), were assessed, recorded, and reported in accordance with FDA guidance. Should any SAE occur, the study would be stopped until a cause for the SAE was determined.

[4] = Post-ECG, After stopping of Dose

Cc1cccc([C@H](C)c2cnc[nH]2)c1C [dexmedetomidine hydrochloride]
QTc interval, Max [1, 4]: 592
QTc interval, Mean ± SD [1, 4]: 462.9 ± 73.04
QTc interval, Median [1, 4]: 441.0
QTc interval, Min [1, 4]: 370
QTc interval, Max ([1]; Pre-ECG, Before Dosing): 524
QTc interval, Mean ± SD ([1]; Pre-ECG, Before Dosing): 447.2 ± 35.51
QTc interval, Median ([1]; Pre-ECG, Before Dosing): 444.3
QTc interval, Min ([1]; Pre-ECG, Before Dosing): 398
adverse events [2]: No adverse event was reported
Time to reach Cmax, range (clinical): 60 to 150 min
maximum dexmedetomidine concentrations, range (clinical): 102 to 380 pg/mL
Plasma concentrations (clinical; 0 h): 0 ng/mL
Plasma concentrations (clinical; 2 h): 0.31805 ng/mL
concentration at 0 h (clinical; Plasma concentrations): 0 ng/mL
concentration at 2 h (clinical; Plasma concentrations): 0.378 ng/mL
AE Term [3]: Headache
AE Outcome ([3]; headache): Recovered
AE Relationship ([3]; headache): Possibly Related
AE Severity ([3]; headache): Moderate
